We go through seven compounds from patent US20200339511A1, “Substituted indoline derivatives as dengue viral replication inhibitors” (priority 2016, published 2020).

One data set relates to DENV-2 16681 strain. The data set is described as follows: DENV-2 antiviral assay (eGFP-labeled virus in Vero cells). The class given is cell-based, Dengue virus. The settings on record: Dengue virus, DENV2, Vero, 72 h, DENV-2 16681 eGFP, MOI 0.5, 3 days. On the procedure:
The antiviral activity of all the compounds of the invention was tested the against DENV-2 16681 strain which was labeled with enhanced green fluorescent protein (eGPF). The culture medium consists of minimal essential medium supplemented with 2% of heat-inactivated fetal calf serum, 0.04% gentamycin (50 mg/mL) and 2 mM of L-glutamine. Vero cells, obtained from ECACC, were suspended in culture medium and 25 μL was added to 384-well plates (2500 cells/well), which already contain the antiviral compounds. Typically, these plates contain a 5-fold serial dilution of 9 dilution steps of the test compound at 200 times the final concentration in 100% DMSO (200 nL). […] Finally, each plate contains wells which are assigned as virus controls (containing cells and virus in the absence of compound), cell controls (containing cells in the absence of virus and compound) and medium controls (containing medium in the absence of cells, virus and compounds). To the wells assigned as medium control, 25 μL of culture medium was added instead of Vero cells. Once the cells were added to the plates, the plates were incubated for 30 minutes at room temperature to allow the cells to distribute evenly within the wells. Next, the plates were incubated in a fully humidified incubator (37° C., 5% CO2) until the next day. Then, DENV-2 strain 16681, labeled with eGFP, was added at a multiplicity of infection (MOI) of 0.5. Therefore, 15 μL of virus suspension was added to all the wells containing test compound and to the wells assigned as virus control. In parallel, 15 μL of culture medium was added to the medium and cell controls. Next, the plates were incubated for 3 days in a fully humidified incubator (37° C., 5% CO2). At the day of the read out, the eGFP fluorescence was measured using an automated fluorescence microscope at 488 nm (blue laser). Using an in-house LIMS system, inhibition dose response curves for each compound were calculated and the half maximal effective concentration (EC50) was determined. Therefore, the percent inhibition (I) for every test concentration is calculated using the following formula: I=100*(ST-SCC)/(SVC-SCC), ST, SCC and SVC are the amount of eGFP signal in the test compound, cell control and virus control wells, respectively. The EC50 represents the concentration of a compound at which the virus replication is inhibited with 50%, as measured by a 50% reduction of the eGFP fluorescent intensity compared to the virus control. The EC50 is calculated using linear interpolation (Table 1).

A short description of the next data set: in vitro. The settings on record: African green monkey.

Structures are written as SMILES.

Usually EC50 stands for the concentration giving half of the maximal effect. By melting point is commonly meant the temperature of the solid-liquid transition.

`COc1cc(NC(C(=O)N2CCc3ccc(C(F)(F)F)cc32)c2ccc(Cl)cc2OC)cc(OCCO)c1` (racemic) [Compound 1, 2-(4-chloro-2-methoxyphenyl)-2-((3-(2-hydroxyethoxy)-5-methoxyphenyl)amino)-1-(6-(trifluoromethyl)indolin-1-yl)ethanone] displayed a melting point of 194 °C. In addition, in the data set on DENV-2 16681 strain, it took 0.0056 µM to reach a half-maximal effect (EC50). This compound also displayed a CC50 in the data set “in vitro” of 13 µM.

Compound `COc1cc(NC(C(=O)N2CCc3cc(F)c(C(F)(F)F)cc32)c2ccc(Cl)cc2)cc(OCCO)c1` (racemic) [Compound 12, 2-(4-chlorophenyl)-1-(5-fluoro-6-(trifluoromethyl)indolin-1-yl)-2-((3-(2-hydroxyethoxy)-5-methoxyphenyl)amino)ethanone] yielded a melting point of 130 °C. In the data set on DENV-2 16681 strain, it took 0.011 µM to reach a half-maximal effect (EC50). Moreover, in “in vitro”, the CC50 was determined as 11 µM.

With `COc1cc(NC(C(=O)N2CCc3ccc(OC(F)(F)F)cc32)c2ccc(Cl)cc2)cc(OCCO)c1` (racemic) [Compound 3, 2-(4-chlorophenyl)-2-((3-(2-hydroxyethoxy)-5-methoxyphenyl)amino)-1-(6-(trifluoromethoxy)indolin-1-yl)ethanone], the melting point was determined as 162 °C. In addition, the EC50 in the data set with DENV-2 16681 strain is 0.0055 µM. The CC50 in “in vitro” is 9.5 µM.

`COc1cc(NC(C(=O)N2CCc3ccc(OC(F)(F)F)cc32)c2ccc(Cl)cc2OC)cc(OCCO)c1` (racemic) [Compound 5, 2-(4-chloro-2-methoxyphenyl)-2-((3-(2-hydroxyethoxy)-5-methoxyphenyl)amino)-1-(6-(trifluoromethoxy)indolin-1-yl)ethanone] returned a melting point of 162 °C. In the data set on DENV-2 16681 strain, this compound yielded an EC50 of 0.0046 µM. In “in vitro”, this compound yielded a CC50 of 9.3 µM.

The compound `COc1cc(NC(C(=O)N2CCc3ccc(C(F)(F)F)cc32)c2ccc(Cl)cc2)cc(OCCO)c1` (racemic) [Compound 4, 2-(4-chlorophenyl)-2-((3-(2-hydroxyethoxy)-5-methoxyphenyl)amino)-1-(6-(trifluoromethyl)indolin-1-yl)ethanone] registered a melting point of 160 °C. In addition, the midpoint of the response with DENV-2 16681 strain, the EC50, lay at 0.0067 µM. The compound also displayed a CC50 in “in vitro” of 9.7 µM.

For the compound `COc1cc(NC(C(=O)N2CCc3cc(OC)c(C(F)(F)F)cc32)c2ccc(Cl)cc2OC)cc(OCCO)c1` (racemic) [Compound 11, 2-(4-chloro-2-methoxyphenyl)-2-((3-(2-hydroxyethoxy)-5-methoxyphenyl)amino)-1-(5-methoxy-6-(trifluoromethyl)indolin-1-yl)ethanone], the melting point came out at 175 °C. Also, the midpoint of the response in the data set on DENV-2 16681 strain, the EC50, lay at 0.0023 µM. The compound further returned a CC50 in “in vitro” of 22 µM.

Turning to `COc1cc(NC(C(=O)N2CCc3cc(OC)c(OC(F)(F)F)cc32)c2ccc(Cl)cc2)cc(OCCO)c1` (racemic) [Compound 13, 2-(4-chlorophenyl)-2-((3-(2-hydroxyethoxy)-5-methoxyphenyl)amino)-1-(5-methoxy-6-(trifluoromethoxy)indolin-1-yl)ethanone], the melting point amounted to 165 °C. Besides, in the data set on DENV-2 16681 strain, the EC50 came to 0.0049 µM. Further, the CC50 in “in vitro” came out at 13 µM.
